Source: patent US20120009601A1, “METHODS AND COMPOSITIONS FOR REPROGRAMMING CELLS” (THE GENERAL HOSPITAL CORPORATION, priority 2010, published 2012)
“Also recorded” adds a separate entry of the source.

Assays:
[1] = tested on: induced hepatocyte-like cells (iHep); test: Generation of human iPS cells (iPS-hHepC) from induced hepatocyte-like cells (iHep); type: cell-based; conditions: 96 hr
Method: Human induced pluripotent stem (iPS) cells were generated from the hepatocyte-like cells that had been generated from human hepatoma cells, using 5′-aza-2′-deoxycytidine (5-AZAC) plus trichostatin A (TSA) without Oct3/4 and c-Myc. The iHep were maintained using a medium for Primate ES cell culture supplemented with 40 ng/ml of hepatocytes growth factor and 20 ng/ml of epidermal growth factor. Furthermore, 500 nM 5′-aza-2′ deoxycytidine (5-AZAC), 150 nM trichostatin A (TSA), 1 μM EMD 616452 as an inhibitor for Tgf beta receptor I kinase/activin-like kinase 5 (Alk5) and 0.5 mM valproic acid (VPA) were administered in the Primate ES cell medium for 96 hr. After 14 days, human iPS cells (iPS-hHepC) were established. Oct3/4 was reactivated by 5-AZAC+TSA. Furthermore, Sox2 and Klf4 were reactivated by EMD 616452 and VPA, respectively.

[2] = tested on: human iPS cells that carry mutant p53; test: Evaluation of cancerous risk: microvessel density (MVD) within teratomas from human iPS cell lines in mice; type: in vivo; conditions: cells treated with PRIMA-1 20 μM; teratomas in immunodeficient mice, anti-CD31 immunofluorescence
From the text: The various human iPS cell lines (No. 1-No. 4) were inoculated intramuscularly into immunodeficient mice (Rag2^−/− Il2rg^−/−). Then, microvessel density (MVD) was compared within teratomas in mice among each group. Furthermore, for angiogenesis in teratomas from each human iPS cell lines, microvessel density (MVD) per high-powered field (h.p.f.) of teratomas was quantified by human-specific anti-CD31 immunofluorescence. n=3-6; All values were mean±s.e.m.
By using microvessel density analysis (MVD) within SCID mice that were transplanted with ChiPS cell lines, risk evaluation of malignant transformations were performed for human iPS cell lines established by various methods (3) (4) (5) (6), including the results described herein (FIG. 9). […] Then, p53-175N, p53-175S and p53-175D were identified as p53-mutational spots in human iPS cells which carry mutant p53, with codon 175 in human p53 being known as one mutational spot in human cancer (7).

[3] = tested on: human iPS cells which carry mutant p53; test: PRIMA-1 treatment of human iPS cells carrying mutant p53 (p21 expression, p53-dependent apoptosis); type: cell-based; conditions: PRIMA-1 20 μM
Method: Next, human iPS cells that carry mutant p53 were selected and treated with PRIMA-1 (20 μM).

[4] = tested on: human iPS cells having wild-types p53; test: PRIMA-1 treatment of human iPS cells carrying wild-type p53 (p53-dependent apoptosis); type: cell-based; conditions: PRIMA-1 20 μM; human iPS cells with wild-type p53

SMILES: Cc1cccc(-c2[nH]ncc2-c2ccc3ncccc3n2)n1 [EMD 616452]
- Sox2 reactivation ([1]; 1 μM EMD 616452, Primate ES cell medium): reactivated

SMILES: O=C1C2CCN(CC2)C1(CO)CO [PRIMA-1, 2,2-Bis(hydroxymethyl)-1-azabicyclo[2.2.2]octan-3-one]
- MVD in human iPS cells carrying mutant p53 [2]: equivalent to that of human iPS cell lines established by small molecules
- induction of p53-dependent apoptosis ([3]; human iPS cells that have mutant p53): induction of p53-dependent apoptosis
- expression of p53 target genes p21 ([3]; human iPS cells which carry mutant p53): induced
- induction of p53-dependent apoptosis [4]: not observed; also recorded: not found

SMILES: CCCC(CCC)C(=O)O [VPA, valproic acid]
- Klf4 reactivation ([1]; 0.5 mM VPA, Primate ES cell medium): reactivated
